Series [1] deals with HCT-116 colon carcinoma. Briefly: Cytotoxicity against solid tumor cells, CCK-8, 72 hrs (Table 4). Type of series: cell-based. Conditions: Homo sapiens. Here is the method: (§1) Compounds are also evaluated against A-549 lung carcinoma and SK-OV-3 ovarian adenocarcinoma cell lines using the methodology as for Table 3. The potency order for the compounds may vary in different tumor cell lines. […] Absorbance was measured using a Powerwave XS microplate spectrophotometer.

Series [2] concerns MX-1 mammary carcinoma. Described as above. In kind it is cell-based. The note with it: Homo sapiens. The procedure:
as §1

For series [3], the system named is A-549 lung carcinoma. Put plainly: Cytotoxicity against solid tumor cells (Table 4). The note with it: Homo sapiens, A549, CCK-8, 72 hrs. In kind it is cell-based. The procedure: as §1
Series [4] deals with SK-OV-3 ovarian adenocarcinoma. Briefly: Cytotoxicity against solid tumor cells (Table 4). The note with it: Homo sapiens, CCK-8, 72 hrs. Type of series: cell-based. The procedure:
as §1

Series [5] has as its system carrageenan-induced paw edema. Put plainly: Carrageenan-induced paw edema. Type of series: in vivo, CD mice. Conditions: FIG. 17; 10, 15, 20 mg/kg iv injection. Here is the method: FIG. 17 compares the anti-inflammatory effect of Compound (D), acetylsalicylic acid (aspirin), and LIDEX against carrageenan-induced paw edema in CD mice. […] The first vertical bar in each set is the control. The second vertical bar in each set is acetylsalicylic acid (200 mg/kg, oral). The third vertical bar in each set is LIDEX cream administered locally, the fourth vertical bar in each set is Compound (D) (10 mg/kg iv injection), the fifth vertical bar in each set is Compound (D) (15 mg/kg iv injection), and the sixth vertical bar in each set is Compound (D) (20 mg/kg iv injection). 1% Carrageenan (20 μL, i.m., injected directly into the paw of CD mice to produce paw edema) was administered at time=0. Compound (D) was administered at 24 hours prior to the carrageenan injection, 1 hour prior to the carrageenan injection, and 6 hours after the carrageenan injection. Acetylsalicylic acid was administered at 1 hour prior to the carrageenan injection, and 6 hours after the carrageenan injection. LIDEX cream was administered at 1 hour prior to the carrageenan injection, and 6 hours after the carrageenan injection. * means P<0.05 and ** means P<0.01.
The comparisons are made by comparing the volumes of the inflamed pedis area (induced by a injection of a 1% carageenan solution) at different time points after the initial carageenan injection. […]
(In the carrageenan paw model, swelling and tenderness develop within hours.)

Series [6] relates to human mammary carcinoma MX-1 xenografts. The note with it: 5FU 50 mg/kg i.v. QD×5.
Series [7] concerns human colon carcinoma HCT-116 xenografts. The note with it: mouse, in vivo.
The test system is the same in series [8]. Put plainly: Compound D with Iso-Oxazole-Fludelone or Isodehydelone in nude mice bearing HCT-116 xenografts.
Series [9] concerns human lymphoblastic leukemic T-cell growth. Briefly: Cytotoxic activity relative to stability during storage at −20° C. in DMSO (Table 10). Type of series: cell-based. The note with it: Homo sapiens, CCRF-CEM, 72 h, XTT, 72 hr. (Tetrazolium dyes change colour on reduction, which living cells bring about.)
The test system of series [10] is quinone reductase (NQO1) in Hepa 1c1c7 murine hepatoma cells. Put plainly: Phase 2 enzyme inducer activity (Prochaska microtiter plate bioassay). Here is the method:
Pure panaxytriol was dissolved in dimethyl sulfoxide. Phase 2 enzyme inducer activity was measured using a rapid assay of activity of representative phase 2 enzyme in a cell line. This assay was originally developed by Prochaska and colleagues as in Prochaska H J, Santamaria A B, Talalay P. “Rapid detection of inducers of enzymes that protect against carcinogens.” Proc Natl Acad Sci US A 1992; 89:2394-2398, and has been further refined as in Fahey J W, Dinkova-Kostova A T, Stephenson K K, Talalay P. “The “Prochaska” microtiter plate bioassay for inducers of NQO1.” Methods Enzymol. 2004; 382:243-258, each of which are incorporated by reference in its entirety. Briefly, Hepa 1c1c7 murine hepatoma cells were grown in 96-well microtiter plates. Serial dilutions of the extracts or compounds which were assayed were added into the wells. After 48 hours, the cells were lysed and the activity of quinone reductase (NQO1) was assayed by the addition of a reaction mixture containing an NADPH-generating system, menadione and MTT. NQO1 catalyzes the reduction of menadione to menadiol by NADPH, and MTT is reduced nonenzymatically by menadiol, resulting in the formation of a blue color that can then be quantitated as in Prochaska H J, Santamaria A B. “Direct measurement of NAD(P)H:quinone reductase from cells cultured in microtiter wells: a screening assay for anticarcinogenic enzyme inducers.” Anal. Biochem. 1988; 169:328-336, which is incorporated by reference in its entirety. […] NQO1 activity and protein content of the lysate were measured in duplicate plates with an optical microtiter plate absorbance reader. […] One unit of inducer activity is defined as the amount that, when added to a single microtiter well, doubles the NQO1 specific activity. Sulforaphane and β-naphthoflavone were used as positive controls in each bioassay. […] NQO1 inducer activity was assayed as described herein, and is reported here as treated/control at different concentrations of ginseng extract or component per well. […] (+) Panaxytriol (molecular weight […]), (Δ) Protopanaxatriol (molecular weight 461), (◯) Korean red SUN GINSENG® extract. The reductase assay can also be performed as disclosed in PCT Publication No. WO 06/023821, the entire contents of which are hereby incorporated in the instant application.

Structures are written as SMILES. Where two headings read alike, the source gives them in different places.

Take `C=C[C@H](O)C#CC#CC[C@H]1OC(C)(C)O[C@@H]1CCCCCCC` [Compound (D)]: the IC50 is 0.617 µM in series [1], 5.32 µM in series [2], 2.85 µM in series [3] and 5.08 µM in [4]. In addition, the anti-inflammatory effect entry in [5] was “mild, slow on-set, anti-inflammatory effect”. The “effect of co-treatment on acute body-weight decrease due to 5FU” value in series [6] is recorded as “did not significantly reduce”. The “effect of co-treatment on therapeutic effect of 5FU” value in series [6] is on record as “not significantly increased”. Further, the “effect of co-administration on iso-oxazole-fludelone toxicity (body weight)” value in series [7] was “significantly reduces iso-oxazole-fludelone toxicity”. Further, the “body weight retention during Isodehydelone treatment” value in series [7] (po) was “retained their body weight significantly better”. The “effect on tumor size and body-weight” value in [8] (10 mg/kg, Q3D×3, Q6D×3, i.v., FIGS. 4A-C) is “reduced the tumor size and increased the subject body-weight”. In series [8] (FIG. 15, Compound (D) orally), the “effect of oral administration on toxicity of isodehydelone” value was “reduces the toxicity and lethality of isodehydelone alone”. Also, the “effect on therapeutic effect of Iso-oxazole-fludelone” value in series [8] (FIGS. 4A, 4B) was “significantly enhances the therapeutic effect of Iso-oxazole-fludelone”.

For the molecule `C=C[C@@H](O)C#CC#CC[C@@H](O)[C@H](O)CCCCCCC` [panaxytriol], the IC50 was determined as 11 µM in [9] (read-out: IC50 in μM CCRF-CEM, Table 10, Aug. 22, 2003 (Stored), same solution kept at −20° C. in DMSO); 6.34 µM in series [9] (read-out: IC50 in μM CCRF-CEM, Table 10, Jul. 25, 2003 (Fresh)); 19.4 µM in series [9] (read-out: IC50 in μM CCRF-CEM/VBL, Table 10, Aug. 22, 2003 (Stored), same solution kept at −20° C. in DMSO); 4.71 ± 0.73 µM in series [9] (read-out: IC50 in μM CCRF-CEM/VBL, Table 10, Jul. 25, 2003 (Fresh)). For the same molecule, the “potency as an inducer relative to protopanxadiol or protopanaxatriol” value in [10] is reported as “over 10 fold”. Moreover, the “significant cytotoxicity observed above” value in series [10] (Hepa 1c1c7 cells) is listed as “above 0.5 μg/well”. In [10] (NQO1), the inducer potency was 5,760,000 U/g. For the same molecule, the “concentration of doubling (CD), average” value in series [10] (NQO1, 48 hours) amounted to 3.85 µM.

(Values after US8859615B2, “Compounds, compositions and methods for reducing toxicity and treating or preventing diseases” (priority 2008, dated 2014).)
